Experimental data from US9545105B2, “1-(heterocyclic carbonyl) piperidines” (BAYER INTELLECTUAL PROPERTY GMBH, priority 2010, dated 2017).

Experiments:
[1] = tested on: Uromyces appendiculatus; test: In vivo preventive test on Uromyces appendiculatus (bean rust); conditions: 100 ppm of active ingredient, evaluated 10 days after inoculation
Method: Solvent: 24.5 parts by weight of acetone • 24.5 parts by weight of N,N-dimethylacetamide Emulsifier: 1 part by weight of alkylaryl polyglycol ether To produce a suitable preparation of active compound, 1 part by weight of active compound is mixed with the stated amounts of solvent and emulsifier, and the concentrate is diluted with water to the desired concentration. To test for preventive activity, young plants are sprayed with the preparation of active compound at the stated rate of application. After the spray coating has dried on, the plants are inoculated with an aqueous spore suspension of the causal agent of bean rust (Uromyces appendiculatus) and then remain for 1 day in an incubation cabinet at approximately 20° C. and a relative atmospheric humidity of 100%. The plants are then placed in a greenhouse at approximately 21° C. and a relative atmospheric humidity of approximately 90%. The test is evaluated 10 days after the inoculation. 0% means an efficacy which corresponds to that of the untreated control, while an efficacy of 100% means that no disease is observed.

[2] = tested on: Septoria tritici; test: In vivo preventive test on Septoria tritici (wheat); conditions: 500 ppm of active ingredient, evaluated 21 days after inoculation
Method: (§1) Solvent: 49 parts by weight of N,N-dimethylacetamide Emulsifier: 1 part by weight of alkylaryl polyglycol ether To produce a suitable preparation of active compound, 1 part by weight of active compound or active compound combination is mixed with the stated amounts of solvent and emulsifier, and the concentrate is diluted with water to the desired concentration. To test for preventive activity, young plants are sprayed with the preparation of active compound or active compound combination at the stated rate of application. After the spray coating has been dried, the plants are sprayed with a spore suspension of Septoria tritici. The plants remain for 48 hours in an incubation cabinet at approximately 20° C. and a relative atmospheric humidity of approximately 100% and afterwards for 60 hours at approximately 15° C. in a translucent incubation cabinet at a relative atmospheric humidity of approximately 100%. The plants are placed in the greenhouse at a temperature of approximately 15° C. and a relative atmospheric humidity of approximately 80%. The test is evaluated 21 days after the inoculation. 0% means an efficacy which corresponds to that of the untreated control, while an efficacy of 100% means that no disease is observed.

[3] = tested on: Puccinia triticina; test: In vivo preventive test on Puccinia triticina (wheat); conditions: 500 ppm of active ingredient, evaluated 8 days after inoculation
Method: as §1, with “Puccinia triticina.” for “Septoria tritici.”, “approximately” for “approximately 100% and afterwards for 60 hours at approximately 15° C. in a translucent incubation cabinet at a relative atmospheric humidity of approximately”, “20°” for “15°”, “8” for “21”

[4] = tested on: Phakopsora pachyrhizi; test: In vivo protective test on Phakopsora pachyrhizi (soybeans); conditions: 250 ppm of active ingredient, evaluated 11 days after inoculation
[5] = tested on: Pyrenophora teres; test: In vivo preventive test on Pyrenophora teres (barley); conditions: 500 ppm of active ingredient, evaluated 7-9 days after inoculation
In short: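 Young barley plants sprayed with compound in DMF/alkylaryl polyglycol ether emulsion; inoculated with P. teres spores one day later. 48 h at 22 °C, 100% humidity, then greenhouse ~20 °C, ~80% humidity; efficacy scored 7-9 days post-inoculation, 0% = untreated, 100% = no disease.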

SMILES | Efficacy [1] | Efficacy [2] | Efficacy [3] | Efficacy [4] | Efficacy [5]
Cc1cc(C)cc(C2CCCCN2C(=O)c2c(C)nn(C)c2F)c1 (centres unmarked) [Example 10] | 100% | 70% | 88% | 98% | 100%
CCc1nn(C)c(F)c1C(=O)N1CCCCC1c1cc(C)cc(C)c1 (centres unmarked) [Example 11] | 98% | 100% | 100% | 96% | 100%
CCc1nn(C)c(F)c1C(=O)N1CCCCC1c1ccc(Cl)cc1 (centres unmarked) [Example 54] | 96% | 100% | 100% |  | 100%
CCC(c1ccccc1)C1CCCCN1C(=O)c1c(C(F)F)nn(C)c1F (centres unmarked) [Example 136] | 78% | 100% |  |  | 100%
CCC(c1ccccc1)C1CCCCN1C(=S)c1c(C(F)F)nn(C)c1F (centres unmarked) [Example 140] | 94% | 100% |  |  | 100%
